According to US20120214760A1, “TREATMENT OF URINARY TRACT INFECTIONS WITH ANTIBACTERIAL AMINOGLYCOSIDE COMPOUNDS” (Achaogen, Inc., priority 2009, published 2012):
Values after ≈ are worked out from the molar mass of the structure shown. Where two headings read alike, the source gives them in different places.

Experiments:
[1] = tested on: E. coli ATCC 25922 (AECO001); test: MIC, CLSI broth microdilution; type: cell-based; settings: Escherichia coli
Experimental: (§1) Minimum inhibitory concentrations (MIC) were determined by reference Clinical and Laboratory Standards Institute (CLSI) broth microdilution methods per M7-A7 [2006]. Quality control ranges utilizing E. coli ATCC 25922, P. aeruginosa ATCC 27853 and S. aureus ATCC 29213, and interpretive criteria for comparator agents were as published in CLSI M100-S17 [2007]. Briefly, serial two-fold dilutions of the test compounds were prepared at 2× concentration in Mueller Hinton Broth. The compound dilutions were mixed in 96-well assay plates in a 1:1 ratio with bacterial inoculum. The inoculum was prepared by suspension of a colony from an agar plate that was prepared the previous day. Bacteria were suspended in sterile saline and added to each assay plate to obtain a final concentration of 5×10^5 CFU/mL. The plates were incubated at 35° C. for 20 hours in ambient air.

[2] = tested on: P. aeruginosa ATCC 27853 (APAE001); test: MIC, CLSI broth microdilution; type: cell-based; settings: Pseudomonas aeruginosa
Experimental: as §1

[3] = ATCC25922, read-out: MIC AECO001, Table 1, AECO001 is ATCC25922
[4] = ATCC27853, read-out: MIC APAE001, Table 1, APAE001 is ATCC27853

CN[C@@H]1[C@@H](O)[C@@H](O[C@@H]2[C@@H](O)[C@H](O[C@H]3OC(CNCC4CC(N)C4)=CC[C@H]3N)[C@@H](N)C[C@H]2NC(=O)[C@@H](O)CCN)OC[C@]1(C)O (stereo partly drawn) [Example 33, 6′-(Methyl-trans-3-amino-cyclobutyl)-1-(4-amino-2(S)-hydroxy-butyryl)-sisomicin]
MIC [1, 3]: < 1 µg/mL | MIC [2, 4]: 1 to 16 µg/mL (≈ 1.58 to 25.3 µM)

CN[C@@H]1[C@@H](O)[C@@H](O[C@@H]2[C@@H](O)[C@H](O[C@H]3OC(CNCC(O)CCN)=CC[C@H]3N)[C@@H](N)C[C@H]2NC(=O)C2(O)CCNC2)OC[C@]1(C)O (stereo partly shown) [Example 35]
MIC [1, 3]: < 1 µg/mL | MIC [2, 4]: 1 to 16 µg/mL (≈ 1.54 to 24.7 µM)

CN[C@@H]1[C@@H](O)[C@@H](O[C@@H]2[C@@H](O)[C@H](O[C@H]3OC(CNCCO)=CC[C@H]3N)[C@@H](N)C[C@H]2NC(=O)C2(O)CNC2)OC[C@]1(C)O [Example 37]
MIC [1, 3]: < 1 µg/mL | MIC [2, 4]: 1 to 16 µg/mL (≈ 1.69 to 27.1 µM)

CN[C@@H]1[C@@H](O)[C@@H](O[C@@H]2[C@@H](O)[C@H](O[C@H]3OC(CNCCN)=CC[C@H]3N)[C@@H](N)C[C@H]2NC(=O)[C@@H](O)CCN)OC[C@]1(C)O [Example 38, 6′-(2-Amino-ethyl)-1-(4-amino-2(S)-hydroxy-butyryl)-sisomicin]
MIC [1, 3]: < 1 µg/mL | MIC [2, 4]: 1 to 16 µg/mL (≈ 1.69 to 27 µM)

CN[C@@H]1[C@@H](O)[C@@H](O[C@@H]2[C@@H](O)[C@H](O[C@H]3OC(CNCCCN)=CC[C@H]3N)[C@@H](N)C[C@H]2NC(=O)C2(O)CCNC2)OC[C@]1(C)O (stereo partly shown) [Example 40]
MIC [1, 3]: 1 to 16 µg/mL (≈ 1.62 to 25.9 µM) | MIC [2, 4]: 1 to 16 µg/mL (≈ 1.62 to 25.9 µM)

CN[C@@H]1[C@@H](O)[C@@H](O[C@@H]2[C@@H](O)[C@H](O[C@H]3OC(CNCC4CC4)=CC[C@H]3N)[C@@H](N)C[C@H]2NC(=O)C2(O)CCNC2)OC[C@]1(C)O (stereo partly shown) [Example 41]
MIC [1, 3]: < 1 µg/mL | MIC [2, 4]: 1 to 16 µg/mL (≈ 1.63 to 26 µM)

CN[C@@H]1[C@@H](O)[C@@H](O[C@@H]2[C@@H](O)[C@H](O[C@H]3OC(CNCC(O)CN)=CC[C@H]3N)[C@@H](N)C[C@H]2NC(=O)C2(O)CCNC2)OC[C@]1(C)O (stereo partly shown) [Example 42, 6′-(2-Hydroxy-3-amino-propyl)-1-(3-hydroxy-pyrrolidin-3-yl-acetyl)-sisomicin]
MIC [1, 3]: 1 to 16 µg/mL (≈ 1.58 to 25.2 µM) | MIC [2, 4]: 1 to 16 µg/mL (≈ 1.58 to 25.2 µM)

CN[C@@H]1[C@@H](O)[C@@H](O[C@@H]2[C@@H](O)[C@H](O[C@H]3OC(CNCCCCN)=CC[C@H]3N)[C@@H](N)C[C@H]2NC(=O)[C@@H](O)CCN)OC[C@]1(C)O [Example 43, 6′-(4-Amino-butyl)-1-(4-amino-2(S)-hydroxy-butyryl)-sisomicin]
MIC [1, 3]: < 1 µg/mL | MIC [2, 4]: < 1 µg/mL

CN[C@@H]1[C@@H](O)[C@@H](O[C@@H]2[C@@H](O)[C@H](O[C@H]3OC(CNCCCCCN)=CC[C@H]3N)[C@@H](N)C[C@H]2NC(=O)[C@@H](O)CCN)OC[C@]1(C)O [Example 44, 6′-(5-Amino-pentyl)-1-(4-amino-2(S)-hydroxy-butyryl)-sisomicin]
MIC [1, 3]: < 1 µg/mL | MIC [2, 4]: 1 to 16 µg/mL (≈ 1.58 to 25.2 µM)

CN[C@@H]1[C@@H](O)[C@@H](O[C@@H]2[C@@H](O)[C@H](O[C@H]3OC(CNCC4(O)CC(N)C4)=CC[C@H]3N)[C@@H](N)C[C@H]2NC(=O)[C@@H](O)CCN)OC[C@]1(C)O (stereo partly shown) [Example 46]
MIC [1, 3]: < 1 µg/mL | MIC [2, 4]: 1 to 16 µg/mL (≈ 1.54 to 24.7 µM)

CN[C@@H]1[C@@H](O)[C@@H](O[C@@H]2[C@@H](O)[C@H](O[C@H]3OC(CNCC4(O)CC(N)C4)=CC[C@H]3N)[C@@H](N)C[C@H]2NC(=O)C2(O)CNC2)OC[C@]1(C)O (stereo partly shown) [Example 47]
MIC [1, 3]: 1 to 16 µg/mL (≈ 1.55 to 24.8 µM) | MIC [2, 4]: 1 to 16 µg/mL (≈ 1.55 to 24.8 µM)

CN[C@@H]1[C@@H](O)[C@@H](O[C@@H]2[C@@H](O)[C@H](O[C@H]3OC(CNCC4CCCN4)=CC[C@H]3N)[C@@H](N)C[C@H]2NC(=O)[C@@H](O)CCN)OC[C@]1(C)O (stereo partly drawn) [Example 49, 6′-(Methyl-pyrrolidin-2-yl)-1-(4-amino-2(S)-hydroxy-butyryl)-sisomicin]
MIC [1, 3]: < 1 µg/mL | MIC [2, 4]: 1 to 16 µg/mL (≈ 1.58 to 25.3 µM)

CN[C@@H]1[C@@H](O)[C@@H](O[C@@H]2[C@@H](O)[C@H](O[C@H]3OC(CNC[C@H](O)C(=O)O)=CC[C@H]3N)[C@@H](N)C[C@H]2NC(=O)[C@@H](O)CCN)OC[C@]1(C)O [Example 50, 6′-(2(S)-Hydroxy-3-propanoic)-1-(4-amino-2(S)-hydroxy-butyryl)-sisomicin]
MIC [1, 3]: > 16 µg/mL | MIC [2, 4]: > 16 µg/mL

CN[C@@H]1[C@@H](O)[C@@H](O[C@@H]2[C@@H](O)[C@H](O[C@H]3OC(CNCC(C)(C)CN)=CC[C@H]3N)[C@@H](N)C[C@H]2NC(=O)[C@@H](O)CN)OC[C@]1(C)O [Example 51, 6′-(2,2-Dimethyl-3-amino-propyl)-1-(3-amino-2(S)-hydroxy-propionyl)-sisomicin]
MIC [1, 3]: < 1 µg/mL | MIC [2, 4]: > 16 µg/mL

CN[C@@H]1[C@@H](O)[C@@H](O[C@@H]2[C@@H](O)[C@H](O[C@H]3OC(CNCCC(N)C4CC4)=CC[C@H]3N)[C@@H](N)C[C@H]2NC(=O)[C@@H](O)CN)OC[C@]1(C)O (stereo partly drawn) [Example 52, 6′-(3-Amino-3-cyclopropyl-propyl)-1-(3-amino-2(S)-hydroxy-propionyl)-sisomicin]
MIC [1, 3]: < 1 µg/mL | MIC [2, 4]: 1 to 16 µg/mL (≈ 1.58 to 25.3 µM)

CN[C@@H]1[C@@H](O)[C@@H](O[C@@H]2[C@@H](O)[C@H](O[C@H]3OC(CNC[C@H]4C[C@H](O)CN4)=CC[C@H]3N)[C@@H](N)C[C@H]2NC(=O)[C@@H](O)CN)OC[C@]1(C)O [Example 53, 6′-(Methyl-4(S)-hydroxy-pyrrolidin-2(R)-yl)-1-(3-amino-2(S)-hydroxy-propionyl)-sisomicin]
MIC [1, 3]: 1 to 16 µg/mL (≈ 1.58 to 25.2 µM) | MIC [2, 4]: > 16 µg/mL

CN[C@@H]1[C@@H](O)[C@@H](O[C@@H]2[C@@H](O)[C@H](O[C@H]3OC(CNCCCO)=CC[C@H]3N)[C@@H](N)C[C@H]2NC(=O)[C@@H](O)CN)OC[C@]1(C)O [Example 54, 6′-(3-Propanol)-1-(3-amino-2(S)-hydroxy-propionyl)-sisomicin]
MIC [1, 3]: < 1 µg/mL | MIC [2, 4]: 1 to 16 µg/mL (≈ 1.69 to 27 µM)

CN[C@@H]1[C@@H](O)[C@@H](O[C@@H]2[C@@H](O)[C@H](O[C@H]3OC(CNCC(C)(C)N)=CC[C@H]3N)[C@@H](N)C[C@H]2NC(=O)[C@@H](O)CN)OC[C@]1(C)O [Example 55, 6′-(2-Methyl-2-amino-propyl)-1-(3-amino-2(S)-hydroxy-propionyl)-sisomicin]
MIC [1, 3]: 1 to 16 µg/mL (≈ 1.65 to 26.4 µM) | MIC [2, 4]: > 16 µg/mL

CN[C@@H]1[C@@H](O)[C@@H](O[C@@H]2[C@@H](O)[C@H](O[C@H]3OC(CNCC4(N)CCC4)=CC[C@H]3N)[C@@H](N)C[C@H]2NC(=O)[C@@H](O)CN)OC[C@]1(C)O [Example 56, 6′-(Methyl-1-amino-cyclobutyl)-1-(3-amino-2(S)-hydroxy-propionyl)-sisomicin]
MIC [1, 3]: < 1 µg/mL | MIC [2, 4]: > 16 µg/mL

CN[C@@H]1[C@@H](O)[C@@H](O[C@@H]2[C@@H](O)[C@H](O[C@H]3OC(CNCCCN)=CC[C@H]3N)[C@@H](N)C[C@H]2NC(=O)C2(O)CNC2)OC[C@]1(C)O [Example 57]
MIC ([1]; ATCC25922, Table 2, read-out: MIC E. coli): < 1 µg/mL | MIC ([1]; Table 1, AECO001 is ATCC25922, read-out: MIC AECO001): < 1 µg/mL | MIC ([2]; ATCC27853, Table 2, read-out: MIC P. aeruginosa): < 1 µg/mL

CN[C@@H]1[C@@H](O)[C@@H](O[C@@H]2[C@@H](O)[C@H](O[C@H]3OC(CNC[C@H]4C[C@H](N)C4)=CC[C@H]3N)[C@@H](N)C[C@H]2NC(=O)[C@@H](O)CN)OC[C@]1(C)O [Example 59, 6′-(Methyl-trans-3-amino-cyclobutyl)-1-(3-amino-2(S)-hydroxy-propionyl)-sisomicin]
MIC [1, 3]: < 1 µg/mL | MIC [2, 4]: 1 to 16 µg/mL (≈ 1.62 to 25.9 µM)

CN[C@@H]1[C@@H](O)[C@@H](O[C@@H]2[C@@H](O)[C@H](O[C@H]3OC(CNC[C@H]4C[C@H](N)C4)=CC[C@H]3N)[C@@H](N)C[C@H]2NC(=O)C2(O)CC(N)C2)OC[C@]1(C)O (stereo partly shown) [Example 60]
MIC [1, 3]: < 1 µg/mL | MIC [2, 4]: 1 to 16 µg/mL (≈ 1.55 to 24.9 µM)

CN[C@@H]1[C@@H](O)[C@@H](O[C@@H]2[C@@H](O)[C@H](O[C@H]3OC(CNCCO)=CC[C@H]3N)[C@@H](N)C[C@H]2NC(=O)C2(O)CC(N)C2)OC[C@]1(C)O (stereo partly shown) [Example 62]
MIC [1, 3]: < 1 µg/mL | MIC [2, 4]: 1 to 16 µg/mL (≈ 1.65 to 26.5 µM)

CN[C@@H]1[C@@H](O)[C@@H](O[C@@H]2[C@@H](O)[C@H](O[C@H]3OC(CNC[C@H]4C[C@H](N)C4)=CC[C@H]3N)[C@@H](N)C[C@H]2NC(=O)C2(O)CNC2)OC[C@]1(C)O [Example 63]
MIC [1, 3]: < 1 µg/mL | MIC [2, 4]: 1 to 16 µg/mL (≈ 1.59 to 25.4 µM)

CN[C@@H]1[C@@H](O)[C@@H](O[C@@H]2[C@@H](O)[C@H](O[C@H]3OC(CNC[C@@H]4C[C@H](N)CN4)=CC[C@H]3N)[C@@H](N)C[C@H]2NC(=O)[C@@H](O)CN)OC[C@]1(C)O [Example 65, 6′-(Methyl-4(S)-amino-pyrrolidin-2(S)-yl)-1-(3-amino-2(S)-hydroxy-propionyl)-sisomicin]
MIC [1, 3]: 1 to 16 µg/mL (≈ 1.58 to 25.3 µM) | MIC [2, 4]: 1 to 16 µg/mL (≈ 1.58 to 25.3 µM)

CN[C@@H]1[C@@H](O)[C@@H](O[C@@H]2[C@@H](O)[C@H](O[C@H]3OC(CNCC4(CN)CC4)=CC[C@H]3N)[C@@H](N)C[C@H]2NC(=O)[C@@H](O)CN)OC[C@]1(C)O [Example 66, 6′-(Methyl-1-aminomethyl-cyclopropyl)-1-(3-amino-2(S)-hydroxy-propionyl)-sisomicin]
MIC [1, 3]: < 1 µg/mL | MIC [2, 4]: 1 to 16 µg/mL (≈ 1.62 to 25.9 µM)

CN[C@@H]1[C@@H](O)[C@@H](O[C@@H]2[C@@H](O)[C@H](O[C@H]3OC(CNCC4(N)CC4)=CC[C@H]3N)[C@@H](N)C[C@H]2NC(=O)[C@@H](O)CN)OC[C@]1(C)O [Example 67, 6′-(Methyl-1-Amino-cyclopropyl)-1-(3-amino-2(S)-hydroxy-propionyl)-sisomicin]
MIC [1, 3]: 1 to 16 µg/mL (≈ 1.66 to 26.5 µM) | MIC [2, 4]: 1 to 16 µg/mL (≈ 1.66 to 26.5 µM)
